In patent US12558383B2, “American cockroach extract, preparation thereof, preparation methods therefor and applications thereof” (SICHUAN GOOD DOCTOR PANXI PHARMACEUTICAL CO., LTD, priority 2019, dated 2026):
Marks after values point to notes of the source that are not given here.

Experiments:
[1] = test system: NO release, LPS induced mouse macrophages (RAW264.7); test: NO release of LPS-stimulated RAW264.7 macrophages (Griess method); type: cell-based; settings: positive drug andrographolide group; LPS 1 μg/mL, NO at 12 h; n=3
Protocol: (§1) Based on TNF-a-IL-6/iNOS-NO inflammatory signal pathway, the regulatory effects of drugs MLG, MLP and MLX on LPS induced inflammation of mouse macrophages (RAW264.7) were evaluated.
(§2) The original solution of drugs MLG, MLP and MLX was diluted by 80 times, 120 times and 160 times, respectively, incubated with cells for 12 h in advance, and used to stimulate cells to induce inflammation by a final concentration of 1 μg/ml LPS. Enzyme linked immunosorbent assay (ELISA) and Griess method were used to detect the release amount of TNF-α at 50 min, and IL-6 at 4 h and NO at 12 h upon LPS stimulation.
(§3) The original solution of drugs MLG, MLP and MLX was diluted by 80 times, 120 times and 160 times respectively, incubated with cells for 12 hours in advance, and then added with 1 μg/mL LPS to stimulate cell inflammation. […]
(§4) All indexes were tested strictly in accordance with the instructions of kits. Finally, the absorbance value at the specific wavelengths were detected on an enzyme labeling instrument, and the content of indexes of each sample were calculated according to the standard curve prepared by the same method. If the absorbance value is lower than the absorbance value of the sample at the lower limit of the standard curve, it is counted as lower than the relevant value, and the relevant statistics are calculated as 0 mean and 0 variance.

[2] = test system: IL-6 release, LPS induced mouse macrophages (RAW264.7); test: IL-6 release of LPS-stimulated RAW264.7 macrophages (ELISA); type: cell-based; settings: positive drug andrographolide group; LPS 1 μg/mL, IL-6 at 4 h; n=3
Protocol: as §1, §2, §3, §4

[3] = test system: TNF-α release, LPS induced mouse macrophages (RAW264.7); test: TNF-α release of LPS-stimulated RAW264.7 macrophages (ELISA); type: cell-based; settings: positive drug andrographolide group; LPS 1 μg/mL, TNF-α at 50 min; n=3
Protocol: as §1, §2, §3, §4

[4] = test system: skin capillary permeability induced by xylene in mice; test: Increase of skin capillary permeability induced by xylene in mice (Evans blue); type: in vivo; settings: extracts 2 mL/kg intragastric, dexamethasone 0.375 mg/kg, once a day 7 times
Protocol: Fifty mice weighing 18-22 g were randomly divided into five groups according to their body weights: MLX, MLG and MLP test groups. […] One hour after the last administration, various mice were injected with 0.5% Evans blue normal saline solution by 0.1 ml/10 g bw via caudal vein, and then xylene were dropped by 30 μL/per mouse on the abdominal skin depilated 24 hours in advance. After 20 minutes, the mice were killed by removing the cervical vertebra. The blue stained skin on the abdomen was cut off, and cut into pieces with surgical scissors, placed into a test tube with a plug, added with and soaked in 5 ml of acetone normal saline (7:3), placed in the dark for 72 hours, and centrifuged at 3000 r/min for 10 minutes to obtain a supernatant. Colorimetric detection was performed at the wavelength of 590 nm on a spectral scanning multifunctional reader to measure the absorbance (OD value). The permeability is represented by OD value, and the results are statistically compared.

[5] = test system: cotton ball granuloma in mice; test: Cotton ball granuloma in mice; type: in vivo; settings: extracts 2 mL/kg, dexamethasone 0.2 mg/kg, 7 consecutive days, n=10
Protocol: Fifty mice weighing 18-22 g were taken, 10/group, half male and half female. The mice were fixed, and disinfected on the chest with iodine. Iodine was removed with 75% alcohol cotton ball. A small hole was cut in the chest, 20 mg high-pressure sterilized cotton ball was implanted into the armpit subcutaneously from the incision with ophthalmic forceps, and then the skin was sutured. […] The above groups were administrated for 7 consecutive days. Before the end of the test on the 8th day, the body weight was measured, then the mice were killed by taking off the cervical vertebra. The implanted cotton ball was taken out together with the surrounding connective tissue, removed of the adipose tissue, wet weighted, placed into the oven at 60° C. for 24 hours, and weighed on a precision balance. The weight of granuloma was obtained by subtracting the original weight of cotton ball from the weighed weight, and the comparison and statistical analysis between groups were carried out.

SMILES | NO [1] [µM] | IL-6 [2] [pg/mL] | TNF-α [3] [pg/mL] | inhibition at 0.375 mg/kg ([4]; Mus musculus, po, 168 h, n=10, read-out: Inhibitory rate) [%] | Inhibitory rate ([4]; n=10) [%] | Dry weigh of granuloma [5] | Wet weigh of granuloma [5] [mg]
C=C1CC[C@@H]2[C@](C)(CO)[C@H](O)CC[C@@]2(C)[C@@H]1C/C=C1/C(=O)OC[C@H]1O [Andro., andrographolide] | 1.86 ± 0.34 | 286.07 ± 47.81 | 592.26 ± 45.7 |  |  |  | 
C[C@@H]1C[C@H]2[C@@H]3CCC4=CC(=O)C=C[C@]4(C)[C@@]3(F)[C@@H](O)C[C@]2(C)[C@@]1(O)C(=O)CO [dexamethasone] |  |  |  | > 80 | 80.7 | 35.63 ± 8.38**^ mg | 252.3 ± 33.6
